# Active and inactive are the calls of the source.
# Legend:
# [1] = test system: Streptococcus sp. 'group A'; assay: Streptococcus pyogenes SK(-)GAS viability under kanamycin – luminescence, BacTiterGlo, confirmation, counter-screen for streptokinase expression inhibitor project, dose response (AID 1900); assay type: functional, organism-based
# [2] = molecular target: T1, Streptokinase A (Streptococcus pyogenes serotype M1, UniProt P10520); assay: viability-normalized secreted streptokinase activity reduction – plasminogen activation absorbance, OD405, dose response (AID 1914); assay type: functional, Streptococcus pyogenes M1 GAS;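 note: secreted streptokinase activity via plasminogen activation per viability signal from cell pellet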
# T1 sequence (P10520 whole entry): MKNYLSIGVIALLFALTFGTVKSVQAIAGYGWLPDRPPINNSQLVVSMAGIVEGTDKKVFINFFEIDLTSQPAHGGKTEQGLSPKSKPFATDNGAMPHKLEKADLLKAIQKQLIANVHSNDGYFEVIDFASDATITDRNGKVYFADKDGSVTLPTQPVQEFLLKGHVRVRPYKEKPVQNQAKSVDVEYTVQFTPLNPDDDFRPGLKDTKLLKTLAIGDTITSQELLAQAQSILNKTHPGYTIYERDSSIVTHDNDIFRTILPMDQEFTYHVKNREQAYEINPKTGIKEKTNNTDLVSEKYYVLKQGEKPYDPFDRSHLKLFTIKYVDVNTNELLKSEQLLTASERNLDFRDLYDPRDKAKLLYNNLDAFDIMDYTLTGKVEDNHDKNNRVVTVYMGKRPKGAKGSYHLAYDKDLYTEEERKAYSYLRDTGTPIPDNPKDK
# [3] = molecular target: NS3 (Hepatitis C virus, UniProt A3EZJ3); assay: PubChem AID 2173; set-up: species or system Hepacivirus hominis
# NS3, sequence (A3EZJ3 whole entry): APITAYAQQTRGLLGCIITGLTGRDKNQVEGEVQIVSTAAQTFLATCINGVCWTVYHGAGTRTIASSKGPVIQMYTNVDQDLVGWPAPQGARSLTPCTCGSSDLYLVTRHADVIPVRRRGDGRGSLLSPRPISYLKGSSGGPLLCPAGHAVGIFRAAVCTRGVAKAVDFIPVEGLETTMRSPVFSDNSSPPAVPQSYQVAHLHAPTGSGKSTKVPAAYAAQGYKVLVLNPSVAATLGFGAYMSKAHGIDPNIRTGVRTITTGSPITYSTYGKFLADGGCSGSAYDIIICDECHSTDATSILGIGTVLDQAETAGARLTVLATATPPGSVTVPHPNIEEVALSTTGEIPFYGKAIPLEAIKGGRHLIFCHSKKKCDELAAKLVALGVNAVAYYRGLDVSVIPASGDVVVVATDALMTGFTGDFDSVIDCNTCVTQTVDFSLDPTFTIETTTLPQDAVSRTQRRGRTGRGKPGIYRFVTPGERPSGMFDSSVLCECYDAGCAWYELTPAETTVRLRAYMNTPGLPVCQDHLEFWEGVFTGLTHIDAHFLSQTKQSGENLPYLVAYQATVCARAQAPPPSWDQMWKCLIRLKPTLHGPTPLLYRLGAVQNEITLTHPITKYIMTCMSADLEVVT
# [4] = test system: Streptococcus; assay: GAS UMAA2166 growth inhibition – luminescence, BacTiterGlo, counter-screen for streptokinase expression inhibitor project, dose response (AID 1915); assay type: functional, organism-based;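 note: potency for reduction of bacterial viability or growth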
# [5] = molecular target: DNA topoisomerase (Yersinia pestis, UniProt A0A2S9PM60); assay: Yersinia topoisomerase I cleavage product accumulation – biochemical, cherry-pick, dose response (AID 588525)
# DNA topoisomerase, sequence (A0A2S9PM60 whole entry): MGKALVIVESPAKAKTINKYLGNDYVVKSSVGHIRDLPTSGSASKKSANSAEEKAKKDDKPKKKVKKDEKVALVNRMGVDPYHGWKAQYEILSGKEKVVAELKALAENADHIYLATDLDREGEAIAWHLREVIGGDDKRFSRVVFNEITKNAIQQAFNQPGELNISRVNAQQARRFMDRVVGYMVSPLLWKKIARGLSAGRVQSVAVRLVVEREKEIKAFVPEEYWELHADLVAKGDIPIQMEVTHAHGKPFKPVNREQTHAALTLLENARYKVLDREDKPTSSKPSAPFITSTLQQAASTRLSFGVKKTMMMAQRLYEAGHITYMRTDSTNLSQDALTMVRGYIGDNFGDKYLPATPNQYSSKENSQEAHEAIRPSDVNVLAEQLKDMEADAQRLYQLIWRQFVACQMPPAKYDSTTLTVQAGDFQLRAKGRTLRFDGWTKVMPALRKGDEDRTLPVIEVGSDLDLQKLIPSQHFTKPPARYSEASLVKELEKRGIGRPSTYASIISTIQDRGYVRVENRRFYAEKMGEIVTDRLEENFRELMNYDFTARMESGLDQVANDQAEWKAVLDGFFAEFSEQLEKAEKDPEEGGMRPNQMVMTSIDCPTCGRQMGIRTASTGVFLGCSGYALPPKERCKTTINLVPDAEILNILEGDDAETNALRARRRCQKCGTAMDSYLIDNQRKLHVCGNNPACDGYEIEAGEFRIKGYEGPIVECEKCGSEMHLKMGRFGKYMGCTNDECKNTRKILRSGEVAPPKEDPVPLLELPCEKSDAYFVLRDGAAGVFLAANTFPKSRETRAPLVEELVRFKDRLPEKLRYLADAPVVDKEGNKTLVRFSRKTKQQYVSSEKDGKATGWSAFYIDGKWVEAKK
# [6] = molecular target: T2, Aminopeptidase N (Plasmodium falciparum FcB1/Columbia, UniProt O96935); assay: malaria alanyl aminopeptidase activity blockers – biochemical, fluorogenic H-Leu-NHMec substrate, 1536-well (AID 1445); set-up: species or system Plasmodium falciparum 3D7, 3D7
# T2 sequence (O96935 whole entry): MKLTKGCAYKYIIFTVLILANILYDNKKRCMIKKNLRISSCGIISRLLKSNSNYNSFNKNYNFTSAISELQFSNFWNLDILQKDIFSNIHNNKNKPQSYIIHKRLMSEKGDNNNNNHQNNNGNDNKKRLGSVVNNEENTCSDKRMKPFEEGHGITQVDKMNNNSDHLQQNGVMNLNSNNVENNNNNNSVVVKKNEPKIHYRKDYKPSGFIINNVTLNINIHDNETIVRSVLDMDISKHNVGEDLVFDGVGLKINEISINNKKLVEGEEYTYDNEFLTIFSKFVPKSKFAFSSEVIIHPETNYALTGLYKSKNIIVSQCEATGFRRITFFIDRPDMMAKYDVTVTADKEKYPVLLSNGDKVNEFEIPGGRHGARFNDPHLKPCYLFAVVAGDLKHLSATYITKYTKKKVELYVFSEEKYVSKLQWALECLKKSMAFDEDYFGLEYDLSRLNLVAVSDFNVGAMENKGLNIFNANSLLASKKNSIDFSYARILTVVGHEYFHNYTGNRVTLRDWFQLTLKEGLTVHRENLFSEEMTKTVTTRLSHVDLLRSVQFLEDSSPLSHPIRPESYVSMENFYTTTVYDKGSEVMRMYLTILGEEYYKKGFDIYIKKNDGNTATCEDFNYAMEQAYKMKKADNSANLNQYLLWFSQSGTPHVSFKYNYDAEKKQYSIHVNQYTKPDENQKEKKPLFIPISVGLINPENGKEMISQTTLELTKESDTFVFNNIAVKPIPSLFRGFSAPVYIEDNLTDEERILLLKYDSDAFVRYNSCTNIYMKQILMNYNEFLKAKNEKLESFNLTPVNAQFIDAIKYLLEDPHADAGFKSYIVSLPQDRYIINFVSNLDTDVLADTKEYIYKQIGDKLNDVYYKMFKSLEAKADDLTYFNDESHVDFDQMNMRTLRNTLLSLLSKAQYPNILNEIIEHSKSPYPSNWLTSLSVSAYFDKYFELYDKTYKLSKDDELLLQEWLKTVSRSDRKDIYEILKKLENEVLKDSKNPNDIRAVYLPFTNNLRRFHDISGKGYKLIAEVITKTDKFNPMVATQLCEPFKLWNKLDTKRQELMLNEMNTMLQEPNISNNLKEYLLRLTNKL
# [7] = Luminescence Cell-Based Dose Confirmation HTS to Identify Activators of 5'UTR Stem-Loop Driven Alpha-Synuclein mRNA Translation in H4 Neuroglioblastoma Cells. [Related pubchem assays: 1829 (Project Summary), 1814 (Primary HTS)]; assay type: functional
# [8] = Luminescence Cell-Based Dose Response HTS to Identify Activators of Luciferase Translation or Activity in H4 […] Cells. [Related pubchem assays: 1829 (Project Summary), 1814 (Primary HTS)]; assay type: functional
# [9] = test system: H4; assay: Luminescence Cell-Based Dose Response HTS to Identify Activators of 5'UTR Stem-Loop Driven Prion Protein mRNA Translation in H4 Neuroglioblastoma Cells. [Related pubchem assays: 1829 (Project Summary), 1814 (Primary HTS)]; assay type: functional; conditions: Homo sapiens
# [10] = mitochondrial function rescue without frataxin homolog – Friedreich's ataxia, plus single-dose screen, dose response (AID 1465); assay type: functional;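 note: yeast depleted of Yfh1p frataxin homolog grown on glycerol needing respiration; WST-1 tetrazolium dye reduction as measure of cellular dehydrogenase metabolic activity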
# [11] = molecular target: Induced myeloid leukemia cell differentiation protein Mcl-1 (Homo sapiens, UniProt Q07820); assay type: functional
# Induced myeloid leukemia cell differentiation protein Mcl-1, sequence (Q07820 whole entry): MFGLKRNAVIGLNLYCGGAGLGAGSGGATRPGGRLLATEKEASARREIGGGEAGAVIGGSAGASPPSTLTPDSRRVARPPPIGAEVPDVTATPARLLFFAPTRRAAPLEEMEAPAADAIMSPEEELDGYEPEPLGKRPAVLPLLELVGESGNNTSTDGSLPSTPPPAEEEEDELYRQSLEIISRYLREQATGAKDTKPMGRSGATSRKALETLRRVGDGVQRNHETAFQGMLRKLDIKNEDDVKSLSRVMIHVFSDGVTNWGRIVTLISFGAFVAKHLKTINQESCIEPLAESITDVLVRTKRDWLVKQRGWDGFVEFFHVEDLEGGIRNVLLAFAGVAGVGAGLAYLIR
# [12] = molecular target: Glucose-6-phosphate 1-dehydrogenase (Homo sapiens, UniProt P11413); assay: inhibition of Homo sapiens G6PD, dose series – biochemical, fluorescence, selectivity assay for P. falciparum G6PD inhibitor project, dose response (AID 504792); assay type: functional
# Glucose-6-phosphate 1-dehydrogenase, sequence (P11413 whole entry): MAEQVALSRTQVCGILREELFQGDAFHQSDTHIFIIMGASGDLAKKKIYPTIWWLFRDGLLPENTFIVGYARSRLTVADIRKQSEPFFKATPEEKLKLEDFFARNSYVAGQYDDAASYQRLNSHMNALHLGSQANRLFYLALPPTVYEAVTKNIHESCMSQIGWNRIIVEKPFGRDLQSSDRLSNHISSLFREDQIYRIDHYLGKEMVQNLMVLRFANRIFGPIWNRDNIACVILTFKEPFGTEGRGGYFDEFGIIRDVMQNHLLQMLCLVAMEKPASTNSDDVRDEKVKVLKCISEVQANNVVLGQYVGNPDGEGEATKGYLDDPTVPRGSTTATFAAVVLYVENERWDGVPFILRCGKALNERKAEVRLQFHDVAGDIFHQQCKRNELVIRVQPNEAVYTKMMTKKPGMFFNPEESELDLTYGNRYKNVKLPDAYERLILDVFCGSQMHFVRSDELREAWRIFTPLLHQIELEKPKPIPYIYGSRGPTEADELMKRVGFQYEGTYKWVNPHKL
# [13] = molecular target: T3, Replicative DNA helicase DnaB (Mycobacterium tuberculosis, UniProt P9WMR3); assay: DnaB intein splicing inhibitors, dose response, biochemical, cell-free fluorescence (AID 449749); assay type: functional
# T3 sequence (P9WMR3 whole entry): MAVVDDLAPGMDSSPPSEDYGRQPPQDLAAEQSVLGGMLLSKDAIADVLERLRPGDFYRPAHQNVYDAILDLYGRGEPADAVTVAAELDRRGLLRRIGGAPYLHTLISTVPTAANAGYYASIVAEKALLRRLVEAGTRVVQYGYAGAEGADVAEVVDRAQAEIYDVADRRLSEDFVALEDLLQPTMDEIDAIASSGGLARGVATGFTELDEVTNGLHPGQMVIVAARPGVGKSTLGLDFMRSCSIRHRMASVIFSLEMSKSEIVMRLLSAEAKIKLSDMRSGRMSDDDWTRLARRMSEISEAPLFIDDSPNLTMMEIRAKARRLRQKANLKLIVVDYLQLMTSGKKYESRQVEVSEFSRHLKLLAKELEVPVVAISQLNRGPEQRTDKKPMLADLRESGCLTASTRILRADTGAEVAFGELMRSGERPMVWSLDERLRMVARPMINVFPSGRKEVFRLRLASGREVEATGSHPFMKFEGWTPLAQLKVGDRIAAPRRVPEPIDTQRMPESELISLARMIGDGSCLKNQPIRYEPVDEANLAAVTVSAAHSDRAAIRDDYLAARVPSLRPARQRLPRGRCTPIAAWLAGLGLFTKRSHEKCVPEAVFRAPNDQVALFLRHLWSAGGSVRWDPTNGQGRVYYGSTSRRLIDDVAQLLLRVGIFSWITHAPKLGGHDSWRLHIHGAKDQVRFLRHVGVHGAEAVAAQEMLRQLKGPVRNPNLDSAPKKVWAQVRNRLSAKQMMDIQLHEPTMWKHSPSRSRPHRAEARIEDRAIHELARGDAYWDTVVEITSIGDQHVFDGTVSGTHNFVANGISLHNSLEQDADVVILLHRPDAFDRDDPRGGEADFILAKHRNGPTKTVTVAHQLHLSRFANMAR
# [14] = test system: Vero; assay: viability of Vero cells under compound – cytotoxicity control for flavivirus capping enzyme inhibitors (AID 588742); assay type: functional; conditions: Chlorocebus sabaeus
# [15] = molecular target: T4, Protein RecA (Mycobacterium tuberculosis, UniProt P9WHJ3); assay: Fluorescence Cell-Free Homogeneous Dose Retest to Identify Inhibitors of RecA-Intein Splicing Activity. [Related pubchem assays (depositor defined):AID2097, AID2223, AID489010, AID492950]; assay type: functional
# T4 sequence (P9WHJ3 whole entry): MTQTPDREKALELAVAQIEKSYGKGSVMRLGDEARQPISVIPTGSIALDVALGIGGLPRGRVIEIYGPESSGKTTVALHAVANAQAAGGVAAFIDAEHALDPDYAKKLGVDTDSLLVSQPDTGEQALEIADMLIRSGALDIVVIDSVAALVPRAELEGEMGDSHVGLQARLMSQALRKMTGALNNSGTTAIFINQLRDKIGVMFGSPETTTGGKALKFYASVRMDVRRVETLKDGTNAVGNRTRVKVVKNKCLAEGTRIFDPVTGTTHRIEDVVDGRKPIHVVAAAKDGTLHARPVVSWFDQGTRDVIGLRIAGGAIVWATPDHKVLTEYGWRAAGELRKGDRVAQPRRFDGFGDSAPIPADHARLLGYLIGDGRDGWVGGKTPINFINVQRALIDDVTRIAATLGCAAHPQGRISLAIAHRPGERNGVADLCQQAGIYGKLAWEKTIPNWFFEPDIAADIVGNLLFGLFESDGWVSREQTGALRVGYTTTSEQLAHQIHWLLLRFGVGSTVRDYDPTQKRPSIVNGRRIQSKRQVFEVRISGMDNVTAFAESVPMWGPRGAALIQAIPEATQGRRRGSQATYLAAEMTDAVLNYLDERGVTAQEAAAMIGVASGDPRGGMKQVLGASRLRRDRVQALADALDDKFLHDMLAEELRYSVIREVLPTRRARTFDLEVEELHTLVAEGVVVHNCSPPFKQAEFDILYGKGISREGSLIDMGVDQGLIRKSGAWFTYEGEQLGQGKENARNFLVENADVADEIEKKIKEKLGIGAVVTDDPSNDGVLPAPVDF
# [16] = molecular target: Genome polyprotein (dengue virus type 2, UniProt P29990); assay: flavivirus cap methylation enzyme inhibition – biochemical, confirmation dose response, primary screen (AID 588689); assay type: functional
# Genome polyprotein, sequence (P29990 2492-3391 limits assumed): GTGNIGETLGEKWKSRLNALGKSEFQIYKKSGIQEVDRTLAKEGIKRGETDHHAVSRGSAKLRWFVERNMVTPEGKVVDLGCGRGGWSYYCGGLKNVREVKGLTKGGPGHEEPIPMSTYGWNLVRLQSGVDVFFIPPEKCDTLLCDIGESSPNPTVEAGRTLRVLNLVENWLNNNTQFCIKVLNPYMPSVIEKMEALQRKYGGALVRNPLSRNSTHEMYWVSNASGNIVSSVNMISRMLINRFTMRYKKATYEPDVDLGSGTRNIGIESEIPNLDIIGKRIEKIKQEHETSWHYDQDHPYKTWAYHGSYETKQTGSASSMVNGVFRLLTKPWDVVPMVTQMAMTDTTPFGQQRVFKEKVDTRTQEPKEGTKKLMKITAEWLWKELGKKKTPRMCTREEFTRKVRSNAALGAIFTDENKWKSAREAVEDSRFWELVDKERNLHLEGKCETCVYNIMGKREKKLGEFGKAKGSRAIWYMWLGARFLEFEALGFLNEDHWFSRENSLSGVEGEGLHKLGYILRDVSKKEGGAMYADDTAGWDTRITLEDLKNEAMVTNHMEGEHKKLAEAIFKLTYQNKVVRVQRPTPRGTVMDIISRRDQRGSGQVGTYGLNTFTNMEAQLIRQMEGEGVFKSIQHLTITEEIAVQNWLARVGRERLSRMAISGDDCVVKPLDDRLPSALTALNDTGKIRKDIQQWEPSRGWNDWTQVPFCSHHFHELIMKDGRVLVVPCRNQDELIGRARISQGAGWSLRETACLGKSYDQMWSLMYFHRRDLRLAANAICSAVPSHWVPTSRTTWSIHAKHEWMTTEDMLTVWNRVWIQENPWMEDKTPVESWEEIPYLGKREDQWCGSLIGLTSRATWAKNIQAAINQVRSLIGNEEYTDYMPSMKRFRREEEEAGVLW
# [17] = molecular target: T5, Polyadenylate-binding protein 1 (Homo sapiens, UniProt P11940); assay: MLLE binding blockers, Cy5 peptide tracer – biochemical, fluorescence polarization, Cy5-PAM2 peptide, secondary, miRNA deadenylation inhibitor project, dose response (AID 602260); assay type: functional; conditions: read-out: IC50_Mean
# T5 sequence (P11940 whole entry, the tested form may be a part): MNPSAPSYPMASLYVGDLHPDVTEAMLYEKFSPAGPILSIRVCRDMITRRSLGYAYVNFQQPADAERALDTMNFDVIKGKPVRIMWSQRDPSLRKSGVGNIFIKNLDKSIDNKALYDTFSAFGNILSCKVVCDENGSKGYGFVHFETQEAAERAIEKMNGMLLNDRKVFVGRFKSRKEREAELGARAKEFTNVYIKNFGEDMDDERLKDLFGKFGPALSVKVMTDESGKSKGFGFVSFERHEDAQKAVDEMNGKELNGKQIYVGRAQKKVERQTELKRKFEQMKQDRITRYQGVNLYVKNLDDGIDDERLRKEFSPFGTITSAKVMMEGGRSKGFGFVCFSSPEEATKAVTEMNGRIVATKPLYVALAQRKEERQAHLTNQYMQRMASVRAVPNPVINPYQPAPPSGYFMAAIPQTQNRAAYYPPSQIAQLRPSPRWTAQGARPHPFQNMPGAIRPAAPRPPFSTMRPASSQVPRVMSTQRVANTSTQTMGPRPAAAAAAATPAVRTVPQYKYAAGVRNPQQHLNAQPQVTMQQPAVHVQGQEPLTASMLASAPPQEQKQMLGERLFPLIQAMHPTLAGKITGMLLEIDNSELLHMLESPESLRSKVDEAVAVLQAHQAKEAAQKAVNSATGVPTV
# [18] = molecular target: T5, Polyadenylate-binding protein 1; assay: MLLE domain peptide-binding blockers, IC50 – biochemical, fluorescence polarization, FITC-PAM2 peptide, dose response (AID 602259); assay type: functional; conditions: read-out: IC50_Mean
Compound,EC50 [1],EC50 [2],IC50 [3],EC50 [4],AC50 [5],IC50 [6],EC50 [7],EC50 [8],EC50 [9],EC50 [10],IC50 [11],IC50 [12],AC50 [13],CC50 [14],EC50 [15],IC50 [16],IC50 [17],IC50 [18]
Cc1ccc(C2C(C(=O)c3cc4ccccc4o3)=C(O)C(=O)N2c2cc(C)on2)cc1 (stereo not drawn),2.28 µM (active),6.3 µM (active),2.49 µM (active),6.76 µM (active),8.86 µM (active),–,–,–,–,–,–,–,–,–,–,–,–,–
Cc1ccc(S(=O)(=O)/N=C2/C=C(C3C(=O)CC(C)(C)CC3=O)C(=O)c3ccccc32)cc1,–,–,–,–,–,34.5 µM (active),8.21 µM (active),42.1 µM (active),46.4 µM (active),> 100 µM (active),2.13 µM (active),> 80 µM (inactive),113 µM (active),> 40 µM (active),3.22 µM (active),10.1 µM (active),> 66 µM (inactive),> 66 µM (inactive)

# Source: ChEMBL document CHEMBL1201862, “PubChem BioAssay data set” (2004)
